Test results reported in patent US20030148269A1, “Centrifugally-enhanced method of determining ligand/target affinity” (priority 1999, published 2003).
Read-outs that look alike come from different tables or passages of the source.

Assays:
[1] = biological target: T1, erythromycin resistant methylase (Erm-AM) (Streptococcus pneumoniae, UniProt P21236); type: binding; details: 25-compound library, mass spectrometry of five fractions, with Erm AM vs buffer only
T1 construct: made in house; host or cells: E. coli BL21(DE3)/pV4, pET-24(+)
Procedure: (§1) Proteins and protein fragments were isolated from recombinant material produced in E. coli as described in detail below. Proteins and protein fragments were dialyzed into standard buffers comprising either a) a mixture of 20 mM ammonium bicarbonate and 1 mM sodium azide, the pH adjusted to pH 7.2 by the addition of acetic acid, or b) 50 mM Tris-HCl, 30 mM KCl, 10 mM magnesium acetate, 10 mM 2-mercaptoethanol, 1 mM sodium azide, and 10% glycerol, pH adjusted to 7.8. In the case of the first buffer system, additional ingredients, specific to each protein, were added to the buffer mixture which included 5 mM 2-mercaptoethanol for erythromycin resistant methylase (Erm-AM), and both 5 mM 2-mercaptoethanol and 10 mM calcium chloride for the stromelysin catalytic domain (SCD). Initial protein or protein fragment concentrations ranged between 100 μM and 1 mM.
(§2) Test compounds were made up in concentrated solutions in dimethyl sulfoxide and diluted into the protein or protein fragment buffer solutions such that the final concentration of dimethyl sulfoxide in the buffer solutions was 1% volume/volume.
The compounds were added to the protein or buffer solutions in 7 mm×20 mm polycarbonate centrifuge tubes, mixed by vortexing, and placed in the centrifuge. Each mixture was then subjected to centrifugation at a speed and for a period of time sufficient to clear the solution of macromolecular target, but not of ligand. Centrifugation was carried out either in a Model TL-100 ultracentrifuge at 100,000 rpm using a TLA-100 rotor, or in a Model L-70 ultracentrifuge at 42,000 rpm using a type 42.2 rotor. (Both centrifuges are manufactured by Beckman Instruments, 1050 Page Mill Road, Palo Alto, Calif. […], USA.)
Following centrifugation, the tubes were removed from the rotor and the tube contents divided into equal volume fractions. Any reasonable number of fractions may be employed; typically four or five fractions are used. To take the fractions, a pipette was carefully inserted into the liquid column in the sample tube to a point just below the liquid meniscus. […] The fractions were individually dispensed into microfuge tubes for analysis.
Mass spectrometric analysis of the samples was performed using either electrospray ionization (ESI) or atmospheric pressure chemical ionization (APCI) techniques. The ESI technique employed either a Model TSQ-700 or a Model LCQ mass spectrometer, and the APCI technique employed a Model LCQ mass spectrometer (both instruments manufactured by the Finnigan Corporation, 355 River Oaks Parkway, San Jose, Calif. 95134, USA).
For ESI analysis, fraction samples were diluted 1:5 with 50% aqueous acetonitrile, leaving the protein or protein fragment in solution. Ten-microliter aliquots, each representing about 10% of the sample, were introduced individually into the instrument by flow injection using 50% aqueous acetonitrile as the carrier. For initial studies with APCI, fractions were likewise diluted 1:5 with 50% aqueous acetonitrile. […] To reduce this background, subsequent samples analyzed by the APCI technique were diluted 1:5 with neat acetonitrile which caused the proteins or protein fragments to release their bound test compounds and precipitate. Sample solutions were then clarified by centrifugation in a microfuge for five minutes prior to analysis by APCI.

[2] = Solubility in the centrifuge carrier solvent (buffer), spun without protein; type: physicochemical
Procedure: as §1
as §2, with “volume/volume. As a result, each compound in the mixture of test compounds had equal access to available binding sites on the target molecule.” for “volume/volume.”
The analysis was carried out with a 25-compound library using the spin-screen method of the present invention with the compound concentration gradients being determined by mass spectrometry. Sample preparation, centrifugation, analysis by mass spectrometry, and data analysis were according to the techniques described above under the heading “General Methodology.” The results are shown in FIGS. 3A and 3B. The figures represent planar cuts of the three-dimensional surface contour plot defined by the three axes: m/z, sample fraction, and mass spectral signal intensity. The planar cuts are taken at comparatively high values constant values of m/z. That is to say, at m/z signal levels which detected only the most strongly binding ligands in the 25-compound library.
The analysis was carried out with a 25-compound library using the spin-screen method of the present invention with the compound concentration gradients being determined by mass spectrometry. Sample preparation, centrifugation, analysis by mass spectrometry, and data analysis were according to the techniques described above under the heading “General Methodology.” The results are presented in FIGS. 5A and 5B.

[3] = biological target: yeast ribosomes isolated from Saccharomyces cerevisiae; test: spin-screen: centrifugation with yeast ribosomes, GFP fluorescence in each of five fractions
[4] = biological target: T2, stromelysin catalytic domain (SCD) (Homo sapiens, UniProt P08254); test: Affinity (Ki) for SCD previously determined by another method; type: binding
Target sequence in this assay (P08254 100-273): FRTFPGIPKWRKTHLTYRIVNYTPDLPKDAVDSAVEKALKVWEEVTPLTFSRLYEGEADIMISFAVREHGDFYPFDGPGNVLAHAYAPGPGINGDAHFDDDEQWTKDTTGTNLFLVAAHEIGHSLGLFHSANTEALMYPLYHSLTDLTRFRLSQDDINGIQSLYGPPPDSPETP

[5] = biological target: T2, stromelysin catalytic domain (SCD); test: Spin-screen (centrifugation) affinity binding to SCD, concentration gradients by HPLC; design: coding for amino acid residues 81-256 plus an initiating methionine aminoacyl residue; initiating methionine (N); made in house; host or cells: E. coli BL21(DE3)/pLysS, plasmid pETST-81-256 (pET3d); details: 100 μM ligand, 100 μM SCD; HPLC of five fractions; with SCD vs buffer only
Procedure: as §1, §2
Target sequence in this assay (P08254 98-272): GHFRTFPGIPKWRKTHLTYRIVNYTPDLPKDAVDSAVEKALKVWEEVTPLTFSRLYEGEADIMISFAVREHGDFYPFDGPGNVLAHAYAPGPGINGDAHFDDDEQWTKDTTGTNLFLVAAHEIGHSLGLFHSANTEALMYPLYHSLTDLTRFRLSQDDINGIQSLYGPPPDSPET
The compounds were added to the protein or buffer solutions in 7 mm×20 mm polycarbonate centrifuge tubes, mixed by vortexing, and placed in the centrifuge. […]

[6] = buffer with 1% dimethyl sulfoxide

T1 sequence (P21236 whole entry, change not shown): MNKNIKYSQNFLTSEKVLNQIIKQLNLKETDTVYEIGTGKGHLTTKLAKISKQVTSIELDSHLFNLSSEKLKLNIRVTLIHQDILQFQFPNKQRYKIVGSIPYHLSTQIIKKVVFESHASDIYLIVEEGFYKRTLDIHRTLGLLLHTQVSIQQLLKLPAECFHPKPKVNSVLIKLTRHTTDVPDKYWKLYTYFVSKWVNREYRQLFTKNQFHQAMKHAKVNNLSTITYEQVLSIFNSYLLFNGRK

Row | Compound | Binding to Erm AM from concentration gradient after centrifugation [1] | fraction of total fluorescence (fraction of total fluorescence) [3] | other results
1 | N-[3-(2,4-dichloro-6-hydroxyphenyl)propyl]-N′-(2,3-dihydro-1H-inden-2-yl) | strongly bind | – | Solubility in the carrier solvent [2]: insoluble
2 | O=C(O)c1ccccc1C(=O)OC(c1ccccc1)c1cccc(Cl)c1 (centres unmarked) [1,2-benzenedicarboxylic acid, mono[(3-chlorophenyl)phenylmethyl] ester] | bound strongly | – | Binding to Erm AM from concentration gradient after centrifugation ([1]; mono [(3-chloro-phenyl)phenylmethyl] ester): bind to Erm AM
3 | GFP-EF3 fusion protein GFP-980-1008 | – | 0.2 | –
4 | O=C(Nc1ccc(C(=O)O)cc1)Nc1cccc(C(F)(F)F)c1 [4-[[[[3-(trifluoromethyl)phenyl]amino]-carbonyl]amino]benzoic acid] | bound weakly | – | Binding to Erm AM from concentration gradient after centrifugation ([1]; listed as 4-[[[(3-trifluoromethyl)-phenyl]amino]carbonyl]amino]benzoic acid): bind to Erm AM
5 | CN(CCCc1c(O)cc(Cl)cc1Cl)c1nc(N)nc(NC2CCCCC2)n1 [N′cyclohexyl-N-[3-(2,4-dichloro-6-hydroxyphenyl)propyl]-N-methyl-1,3,5triazine-2,4,6-triamine] | strongly bind | – | Solubility in the carrier solvent [2]: insoluble
6 | O=c1cc(O)c2ccccc2n1-c1ccc(OCc2ccccc2)cc1 [4-hydroxy-1-[4-(phenylmethoxy)phenyl]-2(1H)-quinoline] | strongly bound | – | Binding to Erm AM from concentration gradient after centrifugation ([1]; listed as 4-hydroxy-1-[4-(phenylmethoxy)-phenyl]-2(1H)-quinoline): bind to Erm AM; Solubility in the carrier solvent [2, 6]: soluble
7 | GFP-EF3 fusion protein GFP-980-1019 | – | 0.2 | –
8 | N#Cc1ccc(-c2ccc(O)cc2)cc1 [4′-hydroxy-1,1-biphenyl-4-carbonitrile] | – | – | Ki [4]: ~1000 µM; Binding to SCD from concentration gradient after centrifugation [5]: binds weakly
9 | Nc1nc(NC2CCCCC2)nc(N2CCCCC2)n1 [N-cyclohexyl-6-(1-piperidinyl)-1,3,5-triazine-2,4-diamine] | strongly bind | – | Binding to Erm AM from concentration gradient after centrifugation ([1]; listed as m/z=277): bound more strongly to Erm-AM than the compound at m/z=286; Solubility in the carrier solvent [2]: soluble
10 | Nc1cc(Cl)c(S(N)(=O)=O)cc1S(N)(=O)=O [4-amino-6-chloro-1,3benzenesulfonamide] | medium binding | – | Binding to Erm AM from concentration gradient after centrifugation ([1]; listed as 4-amino-6-chloro-1,3-benzenesulfonamide): bind to Erm AM; Solubility in the carrier solvent [2, 6]: soluble
11 | Nc1nc(NC2CCCCC2)nc(-c2ccc(O)cc2)n1 [4-[4-amino-6-(cyclohexylamino)-1,3,5-triazin-2-yl]phenol] | strongly bind | – | Solubility in the carrier solvent [2]: soluble
12 | GFP-EF3 fusion protein GFP-980-1025 | – | 0.2 | –
13 | GFP-EF3 fusion protein GFP-980-1013 | – | 0.2 | –
14 | GFP-EF3 fusion protein GFP-980-1008:1025-1031 | – | 0.2 | –
